The CheMixHub ionic liquid set
± gives the uncertainty stated by the source.

Assay: xn = mol fraction of the nth substance listed

C[N+](C)(C)CCC[n+]1ccccc1.N#C[N-]C#N.N#C[N-]C#N + CC#N
100 kPa
Conditions | viscosity [mPa·s]
283.15 K, x1 = 0.7001 | 857 ± 95
288.15 K, x1 = 0.8997 | 1336 ± 150
288.15 K, x1 = 1 | 3879 ± 480
293.15 K, x1 = 0.1999 | 10.8 ± 1.1
293.15 K, x1 = 0.3997 | 75.8 ± 7.7
293.15 K, x1 = 1 | 2191 ± 260
298.15 K, x1 = 0.8997 | 561 ± 61
303.15 K, x1 = 0.0999 | 3 ± 0.3
303.15 K, x1 = 0.2998 | 24.3 ± 2.5
303.15 K, x1 = 0.7998 | 271 ± 28
308.15 K, x1 = 0.1999 | 7.71 ± 0.78
318.15 K, x1 = 0.2998 | 16 ± 1.6
323.15 K, x1 = 0.0999 | 2.43 ± 0.24
323.15 K, x1 = 1 | 210 ± 22
333.15 K, x1 = 0.1999 | 5.08 ± 0.51
333.15 K, x1 = 0.6002 | 37.6 ± 3.8

C[n+]1ccn(CCCC#N)c1.O=S(=O)([O-])C(F)(F)F + CC#N
101 kPa
Conditions | electrical conductivity [S/m] | viscosity [mPa·s]
288.15 K, x1 = 0.1002 | 2.7 ± 0.027 | 1.65 ± 0.04
288.15 K, x1 = 0.2994 | 1.04 ± 0.01 | 16.49 ± 0.37
288.15 K, x1 = 0.5 | 0.185 ± 0.01 | 109.8 ± 3.5
293.15 K, x1 = 0.6005 | 0.22 ± 0.01 | 119.8 ± 4.1
298.15 K, x1 = 0.7996 | 0.114 ± 0.01 | 307 ± 19
303.15 K, x1 = 0.9007 | 0.082 ± 0.01 | 330 ± 21
303.15 K, x1 = 1 | 0.06 ± 0.01 | 422 ± 30
308.15 K, x1 = 0.2994 | 1.7 ± 0.017 | 9.19 ± 0.2
308.15 K, x1 = 1 | 0.08 ± 0.01 | 310 ± 19
313.15 K, x1 = 0.2002 | 2.88 ± 0.029 | 3.74 ± 0.08
313.15 K, x1 = 0.5 | 0.575 ± 0.01 | 36.34 ± 0.79
313.15 K, x1 = 0.7996 | 0.239 ± 0.01 | 133.1 ± 4.9
318.15 K, x1 = 0.1002 | 3.76 ± 0.038 | 1.06 ± 0.02
318.15 K, x1 = 0.5 | 0.679 ± 0.01 | 29.94 ± 0.65
318.15 K, x1 = 0.698 | 0.351 ± 0.01 | 73.7 ± 1.8
318.15 K, x1 = 0.9007 | 0.168 ± 0.01 | 135 ± 5
323.15 K, x1 = 0.1002 | 3.95 ± 0.04 | 0.99 ± 0.02
323.15 K, x1 = 0.6005 | 0.7 ± 0.01 | 32.11 ± 0.7

NCCN1CCNCC1 + CC(=O)[O-].CCCC[n+]1ccn(C)c1 + O
viscosity [mPa·s], 101 kPa
Conditions | 298.15 K | 303.15 K | 308.15 K | 313.15 K | 318.15 K | 323.15 K | 328.15 K | 333.15 K
x2 = 0.03479, x1 = 0.0177 | 3.7 ± 0.15 | 3.32 ± 0.14 | 3.04 ± 0.14 | 2.97 ± 0.14 | 2.6 ± 0.14 | 2.31 ± 0.14 | 2.16 ± 0.14 | 1.97 ± 0.14
x2 = 0.03897, x1 = 0.01333 | 3.73 ± 0.15 | 3.62 ± 0.15 | 3.32 ± 0.15 | 2.99 ± 0.14 | 2.61 ± 0.14 | 2.41 ± 0.14 | 2.31 ± 0.14 | 2.11 ± 0.14
x2 = 0.04311, x1 = 0.00893 | 3.76 ± 0.15 | 3.66 ± 0.15 | 3.32 ± 0.15 | 3.02 ± 0.14 | 2.64 ± 0.14 | 2.48 ± 0.14 | 2.34 ± 0.14 | 2.21 ± 0.14

c1c[nH]cn1 + CC(C)C[P+](C)(CC(C)C)CC(C)C.Cc1ccc(S(=O)(=O)[O-])cc1
Conditions | viscosity [mPa·s]
313.09 K, 101.33 kPa, x2 = 0.5 | 181 ± 42

CC[n+]1ccccc1.N#C[N-]C#N + CC(C)O
100 kPa
Conditions | viscosity [mPa·s]
288.15 K, x2 = 0.2997 | 15.1 ± 1.5
293.15 K, x2 = 0.1055 | 18 ± 1.8
298.15 K, x2 = 0.4023 | 9.28 ± 0.93
303.15 K, x2 = 0.5998 | 5.49 ± 0.55
308.15 K, x2 = 0.7006 | 3.8 ± 0.38
308.15 K, x2 = 0.8997 | 2.27 ± 0.23
313.15 K, x2 = 0 | 12.5 ± 1.3
313.15 K, x2 = 0.5998 | 4.42 ± 0.44
313.15 K, x2 = 0.7006 | 3.43 ± 0.34
313.15 K, x2 = 0.8007 | 2.66 ± 0.27
318.15 K, x2 = 0.5998 | 3.99 ± 0.4
318.15 K, x2 = 0.7006 | 3.11 ± 0.31

CCCCCCCC[N+](C)(CCCCCCCC)CCCCCCCC.[Br-] + CCCCCCCCCC(=O)O
100 kPa, x1 = 0.3333
Conditions | viscosity [mPa·s]
293 K | 810 ± 330
298 K | 570 ± 230
303 K | 410 ± 170
308 K | 310 ± 120
333 K | 84 ± 34

CC[N+](CC)(CC)CC.[Br-] + CCCCCCCCCCCCCCn1cc[n+](C)c1.[Br-] + O
electrical conductivity [S/m], 101 kPa, frequency 0.001 MHz
Conditions | 298.15 K | 308.15 K | 318.15 K
x2 = 0, x1 = 1.802e-05 | 0.0115 ± 0.0007 | 0.0142 ± 0.00079 | 0.0177 ± 0.00092
x2 = 0, x1 = 3.604e-05 | 0.0198 ± 0.0011 | 0.024 ± 0.0013 | 0.0294 ± 0.0015
x2 = 0, x1 = 9.009e-05 | 0.0417 ± 0.0024 | 0.0509 ± 0.0029 | 0.0613 ± 0.0034

O=P([O-])([O-])[O-].[Na+].[Na+].[Na+] + CCCCCCCCCCCC[N+](C)(C)C.[Br-] + O
298.15 K, 101 kPa
Conditions | electrical conductivity [S/m]
x2 = 0, x1 = 0.0001802 | 0.411 ± 0.0008
x2 = 0, x1 = 0.001799 | 2.052 ± 0.004
x2 = 5.23e-06, x1 = 0.0001802 | 0.411 ± 0.0008
x2 = 7.86e-06, x1 = 0.001799 | 2.048 ± 0.004
x2 = 1.209e-05, x1 = 0.0001802 | 0.4123 ± 0.0008
x2 = 1.591e-05, x1 = 0.001799 | 2.047 ± 0.004
x2 = 1.895e-05, x1 = 0.0001802 | 0.4139 ± 0.0008
x2 = 2.633e-05, x1 = 0.001799 | 2.047 ± 0.004
x2 = 2.887e-05, x1 = 0.0001802 | 0.4171 ± 0.0008
x2 = 3.573e-05, x1 = 0.0001802 | 0.4194 ± 0.0008
x2 = 3.912e-05, x1 = 0.001799 | 2.048 ± 0.004
x2 = 4.223e-05, x1 = 0.0001802 | 0.4213 ± 0.0008
x2 = 4.89e-05, x1 = 0.0001802 | 0.4235 ± 0.0008
x2 = 5.21e-05, x1 = 0.001799 | 2.049 ± 0.004
x2 = 5.756e-05, x1 = 0.0001802 | 0.4261 ± 0.0009
x2 = 6.605e-05, x1 = 0.0001802 | 0.429 ± 0.0009
x2 = 6.673e-05, x1 = 0.001799 | 2.051 ± 0.004
x2 = 7.416e-05, x1 = 0.0001801 | 0.4318 ± 0.0009
x2 = 8.172e-05, x1 = 0.001799 | 2.054 ± 0.004
x2 = 8.246e-05, x1 = 0.0001801 | 0.4346 ± 0.0009
x2 = 9.058e-05, x1 = 0.0001801 | 0.4375 ± 0.0009
x2 = 9.852e-05, x1 = 0.0001801 | 0.4405 ± 0.0009
x2 = 9.872e-05, x1 = 0.001799 | 2.059 ± 0.004
x2 = 0.000107, x1 = 0.0001801 | 0.444 ± 0.0009
x2 = 0.0001133, x1 = 0.001799 | 2.063 ± 0.004
x2 = 0.0001155, x1 = 0.0001801 | 0.4477 ± 0.0009
x2 = 0.0001247, x1 = 0.0001801 | 0.4515 ± 0.0009
x2 = 0.0001301, x1 = 0.001799 | 2.067 ± 0.004
x2 = 0.0001324, x1 = 0.0001801 | 0.4544 ± 0.0009
x2 = 0.0001404, x1 = 0.0001801 | 0.4573 ± 0.0009
x2 = 0.000147, x1 = 0.001798 | 2.07 ± 0.01
x2 = 0.000148, x1 = 0.0001801 | 0.4602 ± 0.0009
x2 = 0.0001566, x1 = 0.0001801 | 0.4633 ± 0.0009
x2 = 0.0001632, x1 = 0.001798 | 2.074 ± 0.004
x2 = 0.0001658, x1 = 0.0001801 | 0.4669 ± 0.0009
x2 = 0.000175, x1 = 0.0001801 | 0.4702 ± 0.0009
x2 = 0.0001791, x1 = 0.001798 | 2.078 ± 0.004
x2 = 0.0001842, x1 = 0.0001801 | 0.4735 ± 0.0009
x2 = 0.0001934, x1 = 0.0001801 | 0.4766 ± 0.001
x2 = 0.0001954, x1 = 0.001798 | 2.081 ± 0.004
x2 = 0.0002026, x1 = 0.0001801 | 0.4791 ± 0.001
x2 = 0.0002111, x1 = 0.001798 | 2.083 ± 0.004
x2 = 0.0002116, x1 = 0.0001801 | 0.481 ± 0.001
x2 = 0.0002205, x1 = 0.0001801 | 0.4824 ± 0.001
x2 = 0.0002268, x1 = 0.001798 | 2.086 ± 0.004
x2 = 0.0002327, x1 = 0.0001801 | 0.4842 ± 0.001
x2 = 0.0002427, x1 = 0.001798 | 2.089 ± 0.004
x2 = 0.0002436, x1 = 0.0001801 | 0.4857 ± 0.001
x2 = 0.0002524, x1 = 0.0001801 | 0.4866 ± 0.001
x2 = 0.0002579, x1 = 0.001798 | 2.091 ± 0.004
x2 = 0.0002612, x1 = 0.0001801 | 0.4876 ± 0.001
x2 = 0.0002726, x1 = 0.0001801 | 0.489 ± 0.001
x2 = 0.0002731, x1 = 0.001798 | 2.094 ± 0.004
x2 = 0.0002851, x1 = 0.0001801 | 0.4902 ± 0.001
x2 = 0.0002866, x1 = 0.001798 | 2.096 ± 0.004
x2 = 0.0002984, x1 = 0.0001801 | 0.4919 ± 0.001
x2 = 0.0003017, x1 = 0.001798 | 2.099 ± 0.004
x2 = 0.0003094, x1 = 0.0001801 | 0.4931 ± 0.001
x2 = 0.0003171, x1 = 0.001798 | 2.101 ± 0.004
x2 = 0.0003315, x1 = 0.001798 | 2.103 ± 0.004
x2 = 0.0003393, x1 = 0.0001801 | 0.4959 ± 0.001
x2 = 0.0003465, x1 = 0.001798 | 2.105 ± 0.004
x2 = 0.0003608, x1 = 0.001798 | 2.108 ± 0.004
x2 = 0.0003754, x1 = 0.001798 | 2.11 ± 0.01
x2 = 0.0003895, x1 = 0.001798 | 2.112 ± 0.004
x2 = 0.000403, x1 = 0.001798 | 2.114 ± 0.004
x2 = 0.0004205, x1 = 0.001798 | 2.117 ± 0.004

CC(C)[C@H](NC(=O)CN)C(=O)O + CCCCCCCCCCCC[N+](C)(C)Cc1ccccc1.[Cl-] + O
electrical conductivity [S/m], 101 kPa
Conditions | 293.15 K | 298.15 K | 303.15 K | 308.15 K | 313.15 K
x1 = 0.0008948, x2 = 0 | 0.00327 ± 0.0002 | 0.00375 ± 0.00023 | 0.00427 ± 0.00026 | 0.00485 ± 0.0003 | 0.0055 ± 0.0003
x1 = 0.001799, x2 = 0 | 0.00533 ± 0.00033 | 0.00608 ± 0.00038 | 0.0069 ± 0.0004 | 0.0078 ± 0.0005 | 0.00879 ± 0.00054
